# Values joined by “and” are separate entries in the source; they are usually repeats but may differ in a detail not shown here. Equal entries are not always repeated.
# How the values were obtained:
# [1] = tested on: EPIAIRWAY tissue (normal and asthmatic lung epithelium); test: Periostin levels in IL-13 stimulated […] tissue models; assay type: cell-based, human; settings: stimulation with 50 ng/mL IL-13 for 48 hours (FIG. 6)
# Description: FIG. 6: Periostin levels in IL-13 Stimulated […]™ Models (Normal and Asthmatic Lung Epithelium). Detection of periostin levels in […]™ tissue obtained from either normal healthy individuals or from asthma patients each receiving different treatments: Advair only; oral and inhaled steroids; no medication; or albuterol only. Periostin levels were determined using the biotin/streptavidin-HRP sandwich ELISA assay using 4B4.B11 as the capture antibody and biotinylated 7B5.C4 as the detection antibody. Samples receiving steroid were pre-treated for 6 hrs with 100 nM budesonide. Samples were either unstimulated or stimulated with 50 ng/mL IL-13±budesonide for 48 hours. Periostin levels increase following stimulation with IL-13. This increase is reduced with steroid treatment.
# The assay provided in this disclosure was further used to measure periostin levels in the […]™ tissue model. EpiAirway tissue models were obtained from MatTek corporation. These tissues are a 3-D model of respiratory tract tissue obtained from either normal healthy individuals or from asthma patients. The model was used to evaluate 1 normal donor and 4 asthma donors. The 4 asthma donors each had received different treatments: Advair only; oral and inhaled steroids; no medication; or albuterol only. All tissue samples were cultured in appropriate cell culture media (provided from MatTek) for 24 hrs prior to stimulation. […]
# [2] = tested on: patients with uncontrolled asthma; settings: above-median vs below-median baseline serum periostin; cited from earlier work
# [3] = tested on: adults with uncontrolled, severe asthma; test: Phase 2b study CD-RI-CAT-354-1049 of SC tralokinumab, subgroup analysis by baseline serum periostin; assay type: in vivo, human; settings: for Asthma exacerbation rate reduction: tralokinumab 300 mg Q2W vs placebo; for Change from baseline in ACQ-6 / Change from baseline in AQLQ / Percent change from baseline in FEV1: tralokinumab 300 mg Q2W
# Description: A 5-week screening/run-in period (Week-5 to -1 [Day-1]) preceded randomisation. Starting at Week-4 (Day-28), patients received a fixed-dose combination product of fluticasone/salmeterol, either as an MDI (230 μg/21 μg) at a dose of 2 inhalations twice per day or as a DPI (500 μg/50 μg) at a dose of one inhalation twice per day. If the patient was also taking additional asthma controller medications (including leukotriene modifiers, theophylline, cromones, a secondary ICS, or oral prednisolone ≦20 mg/day or equivalent OCS), then these medications were to be continued at a stable dose during the screening/run-in and treatment period.
# Patients were randomised in a 1:1 ratio to one of 2 cohorts (Cohort 1 or Cohort 2).
# The median periostin level used in the study to define high periostin was a baseline serum periostin of ≧23 ng/mL (i.e., high periostin) as measured using an immunoassay.
# FIGS. 11A-B; TABLE 4. The median periostin level used in the study to define high periostin was a baseline serum periostin of about ≧23 ng/mL (i.e., high periostin) as measured using an immunoassay. For a continuous representation of AER reduction by periostin level and percent change from baseline in pre-bronchodilator FEV, by serum periostin level, see FIG. 10.
# [4] = post hoc, 300 mg Q2W, FEV1 reversibility≧12% and serum periostin≧median at baseline
substance,measurement,setting,value
IL-13: 114 amino acid cytokine used to stimulate periostin expression,Periostin levels,[1],increase
lebrikizumab,increases in FEV1,[2],larger increases in FEV1
tralokinumab,percent change from baseline in pre-bronchodilator FEV1 over time,"[3]; 300 mg Q2W group, through to Week 53, (FIG. 11B)",No significant increases in FEV1
same,percent change from baseline in pre-bronchodilator FEV1 over time,"[3]; 300 mg Q2W group, through to Week 53, periostin >=median (FIG. 11A)",Relative increases in FEV1 were observed
same,percent change from baseline in pre-bronchodilator FEV1 over time,"[3]; Q2/4W group, through to Week 53, (FIG. 11B)",No significant increases in FEV1
same,reduction in serum periostin levels,[3]; patients with baseline serum periostin above the median compared to those below the median,Greater reduction
same,percentage increase from baseline in pre-bronchodilator FEV1 compared to placebo,[3]; [4],13.85%
same,reduction in AER,[3]; [4],54%
same,Asthma exacerbation rate reduction,"[3]; Week 53, ITT (N = 150)",7%
same,Asthma exacerbation rate reduction,"[3]; Week 53, baseline serum Periostin ≧ Median",25%
same,Change from baseline in ACQ-6,[3]; ITT,−0.18
same,Change from baseline in AQLQ,[3]; ITT,0.21
same,Change from baseline in ACQ-6,[3]; Periostin < Median,−0.02
same,Change from baseline in AQLQ,[3]; Periostin < Median,0.21
same,Change from baseline in ACQ-6,[3]; Periostin ≧ Median,−0.23
same,Change from baseline in AQLQ,[3]; Periostin ≧ Median,0.22
same,Percent change from baseline in FEV1,"[3]; Week 53, ITT / regardless of serum periostin level",7.1%
same,Percent change from baseline in FEV1,"[3]; Week 53, Periostin < Median",7.06%
same,Percent change from baseline in FEV1,"[3]; Week 53, Periostin ≧ Median",6.75% and 6.8%

# From patent US9862762B2, “Monoclonal antibodies which bind human periostin” (MEDIMMUNE, LLC, priority 2014, dated 2018)
